# Source: patent US7589078B2, “Anti-viral nucleoside analogs and methods for treating viral infections, especially HIV infections” (Yale University, priority 2003, dated 2009)
# Entries after “also recorded” stand apart in the source; their conditions may differ. Where two headings read alike, the source gives them in different places.
# T1: thymidine kinase (TK-1) (Homo sapiens, UniProt P04183)
# T1 sequence (P04183 1-234): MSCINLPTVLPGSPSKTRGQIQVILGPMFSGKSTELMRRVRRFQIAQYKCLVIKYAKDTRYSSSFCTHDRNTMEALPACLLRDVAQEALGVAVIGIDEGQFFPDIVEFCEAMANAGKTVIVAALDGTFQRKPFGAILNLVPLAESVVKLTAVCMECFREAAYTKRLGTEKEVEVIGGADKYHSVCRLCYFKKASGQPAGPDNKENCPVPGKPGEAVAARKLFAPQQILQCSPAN
# T2: thymidine phosphorylase (TP) (Homo sapiens, UniProt P19971)
# T2 construct: using a partially purified prepartion of human liver extract (28) as a source of the thymidine phosphorylase (TP); from tissue; host or cells: human liver extract, partially purified
# T2 sequence (P19971 11-482): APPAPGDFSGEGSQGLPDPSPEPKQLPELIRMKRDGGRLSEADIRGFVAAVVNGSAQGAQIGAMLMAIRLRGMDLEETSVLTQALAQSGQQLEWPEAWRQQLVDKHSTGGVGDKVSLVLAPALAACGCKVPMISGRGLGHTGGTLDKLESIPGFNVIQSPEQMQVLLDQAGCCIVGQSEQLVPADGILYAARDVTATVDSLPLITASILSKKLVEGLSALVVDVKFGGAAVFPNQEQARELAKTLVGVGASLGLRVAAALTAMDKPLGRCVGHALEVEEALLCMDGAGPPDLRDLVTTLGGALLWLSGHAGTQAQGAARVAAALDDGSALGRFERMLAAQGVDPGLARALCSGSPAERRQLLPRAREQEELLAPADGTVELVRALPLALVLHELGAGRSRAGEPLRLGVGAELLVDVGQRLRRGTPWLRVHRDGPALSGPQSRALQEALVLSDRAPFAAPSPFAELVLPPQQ
# What was measured:
# HIV = settings: Maag et al (29), O-Yang et al (32); cited from earlier work
# thymidine kinase (TK-1) [1] = target: T1, thymidine kinase (TK-1); assay: Thymidine kinase assay with added nucleoside ([14C]-dThd to dTMP); settings: [14C]-dThd 25 μM, added nucleoside 250 μM; compared to reactions with no additions
# Procedure: After two additional washes in ethanol, the discs were dried and placed in scintillation vials that contained 5 ml SafeScint Scintillation Cocktail (American Bioanalytical, Natick, Mass.). The amount of radioactivity, which represents the amount of dTMP formed, was quantitated in a Beckman LS5000TD Scintillation Counter (Beckman Instruments Inc., Palo Alto, Calif.).
# [2] = tested on: mtDNA content of CEM cells; assay: Mitochondrial DNA content in CEM cells (Southern blot); format: cell-based; settings: for IC50: four days, read-out: Mitochondrial DNA Content ID50
# Procedure: Mitochondrial DNA: The effect of nucleoside analogs on mtDNA content was assessed as described previously (2). […] Cells treated with drugs at various concentrations either as single agents or in combination were grown for four days. Cells were then harvested, treated with proteinase K and DNase free RNase. Extracts were applied to nylon membranes and hybridized with an mtDNA probe. After stripping the membrane the load was normalized by rehybridizing the membrane with an Alu probe. Blots were quantitated with a Molecular Dynamics personal densitometer SI with ImageQuaNT analysis software.
# CEM cells = assay: Cellular toxicity in CEM cells (cell counts); settings: for IC50: Homo sapiens, CCRF-CEM, 96 h, read-out: Cellular ID50
# Procedure: The basic procedures are similar. The cells are seeded a low concentration, then serial dilutions of test compound are added. […] After 48 to 96 h incubation at 37° C. in a 5% CO2 humidified incubator the assay is ended. The drug treated samples are compared to the untreated controls. This is accomplished in suspension cell lines by counting cell numbers either with a hemocytometer or by using a Coulter Counter.
# The numbers in parentheses represent the mean and standard deviations of percentage of untreated CEM control cells at the concentration indicated.
# HIV-1 strain IIIB [3] = assay: Antiviral activity in MT-2 cells infected with HIV-1 strain IIIB (MTT); format: cell-based
# Procedure: Determination of antiviral activity: Compounds were tested in MT-2 cells infected with HIV-1 strain IIIB essentially as described previously (31). […]. Calculations of the percent protection and isobologram combination studies are described (12).
# [4] = tested on: CEM cellular extract supplemented with partially purified TK-1 and recombinant human dTMP kinase; assay: Phosphorylation to triphosphate in CEM cellular extract with TK-1 and dTMP kinase; format: biochemical; settings: unpublished results
# Acid stability study = format: physicochemical; settings: 1N HCl, pH 1, 37° C., 2.5 h, HPLC
# Procedure: Acid stability studies: Nucleoside samples were mixed with 1N HCl and incubated at 37° C. for 2.5 h. Then the samples were examined by HPLC using a Bechman ODS column employing a gradient of water to 80% methanol.
# [5] = target: T2, thymidine phosphorylase (TP); assay: Thymidine phosphorylase assay; format: in vitro ADME; settings: partially purified TP from human liver
# Procedure: Thymidine Phosphorylase Assays: Nucleoside analogs (100 μM) were incubated in 75 mM potassium phosphate buffer pH 7.3 at 37° C. using a partially purified prepartion of human liver extract (28) as a source of the thymidine phosphorylase (TP). After incubation, the reaction was stopped by the addition of trichloroacetic acid to a final concentration of 15%. The samples were then incubated on ice. After the acid insoluble components were removed by centrifugation, the supernatant was neutralized by two extractions with one half volume of trioctylamine/freon (45:55). The aqueous supernatants were examined by HPLC using the Beckman ODS column method, as described in Acid Stability Studies.
# thymidine kinase (TK-1) [6] = target: T1, thymidine kinase (TK-1); assay: Monophosphorylation of analogs by thymidine kinase; format: biochemical; parameters: phosphorylated by thymidine kinase (TK-1) from CEM cells; endogenous in cells; settings: for Relative Vmax: 250 μM dThd or analog, 2.4 mM ATP, 0.07 unit TK-1, 37° C., 285 min, dThd = 100
# Procedure: Monophosphorylation of Analogs by Thymidine Kinase: All the analogs were tested for their ability to be phosphorylated by thymidine kinase (TK-1) from CEM cells. This enzyme was purified by an affinity column technique developed in this laboratory (7). […] At the end of the incubation time the reaction was stopped by the addition of 3 parts cold HPLC grade methanol. After incubating on ice for at least 10 min. the methanol insoluble material is precipitated by centrifugation and the methanol soluble supernatants were placed into clean microfuge tubes. These samples were brought to dryness in a Speedvac Centrifuge. The samples were dissolved in water and separated on a Shimatzu HPLC model SCL 10Avp using a gradient of water to 300 mM potassium phosphate and a Whatman 10/25 particle SAX column. Km and relative Vmax studies were done in a similar fashion, using the same mixture and different amounts of substrate and enzyme.
# MT-2 cells = assay: Cellular toxicity, MT-2 cell growth; format: cell-based; settings: for IC50: Homo sapiens, MT2, MT-2 cells, read-out: ID50: concentration required to inhibit MT-2 cell growth by 50%
# From the text: (§1) The basic procedures are similar.
# HIV-1 strain IIIB [7] = settings: MT-2 cells; EC50 reported previously (17); read-out: EC50: effective concentration required to achieve 50% protection from HIV in MT-2 cells; cited from earlier work
# H-9 cells = assay: Toxicity in H-9 cells alone and in combination (Coulter Counter); format: cell-based; settings: for Percent of Untreated Controls: H-9 cells, 48 h
# From the text: as §1
# [8] = substrate: C#C[C@@]1(CO)C=C[C@H](n2cc(C)c(=O)[nH]c2=O)O1; assay: Monophosphorylation of analogs by thymidine kinase; format: biochemical; settings: other: phosphorylation by human cytoplasmic thymidine kinase; pH 7.5
# Procedure: Monophosphorylation of Analogs by Thymidine Kinase: All the analogs were tested for their ability to be phosphorylated by thymidine kinase (TK-1) from CEM cells. […] At the end of the incubation time the reaction was stopped by the addition of 3 parts cold HPLC grade methanol. After incubating on ice for at least 10 min. the methanol insoluble material is precipitated by centrifugation and the methanol soluble supernatants were placed into clean microfuge tubes. These samples were brought to dryness in a Speedvac Centrifuge. The samples were dissolved in water and separated on a Shimatzu HPLC model SCL 10Avp using a gradient of water to 300 mM potassium phosphate and a Whatman 10/25 particle SAX column. Km and relative Vmax studies were done in a similar fashion, using the same mixture and different amounts of substrate and enzyme.
# [9] = substrate: Cc1cn([C@H]2C=C[C@@H](CO)O2)c(=O)[nH]c1=O; assay: purified protein, by the assay type; settings: other: phosphorylation by human cytoplasmic thymidine kinase; pH 7.5; 37.0 °C
molecule,measurement,setting,value
Cc1cn([C@H]2C=C[C@](CO)(N=[N+]=[N-])O2)c(=O)[nH]c1=O [4′-azido D4T],Anti-HIV activity as described by others,HIV,inactive against HIV at non-toxic levels
"Cc1cn([C@H]2C=C[C@@H](CO)O2)c(=O)[nH]c1=O [D4T, 2′,3′-Didehydro-3′-deoxythymidine, reference compound]",Percent of Activity,thymidine kinase (TK-1) [1],106.3 ± 7.7%
same,IC50,"[2]; Homo sapiens, CCRF-CEM, 96 h",9.3 ± 1.4 µM
same,IC50,CEM cells,60 ± 18 µM
same,EC50,"HIV-1 strain IIIB [3]; Human immunodeficiency virus 1, IIIB, MT2, read-out: EC50: effective concentration required to achieve 50% protection from HIV in MT-2 cells",1.3 ± 0.4 µM
same,EC50,"HIV-1 strain IIIB [3]; Human immunodeficiency virus 1, IIIB, MT2, read-out: EC50 for single agents (isobologram study)",1.4 µM
same,Phosphorylation to the triphosphate metabolite,[4],more efficiently phosphorylated to the triphosphate metabolite than 4′-ethynyl D4T
same,Stability at pH 1,Acid stability study,No detectable breakdown
same,"Break down by thymidine phosphorylase, times slower than dThd",[5],at least 10 times
same,Relative Vmax,thymidine kinase (TK-1) [6],2.1 ± 0.7
same,Rate of conversion to the monophosphate form,thymidine kinase (TK-1) [6]; purified human TK-1,approximately 2% of dThd
same,IC50,MT-2 cells,98 ± 10.8 µM
"C#C[C@@]1(CO)C=C[C@H](n2cc(C)c(=O)[nH]c2=O)O1 [4′-ethynyl D4T, 2′,3′-didehydro-3′-deoxy-4′-ethynylthymidine]",Percent of Activity,thymidine kinase (TK-1) [1],83.9 ± 6.1%
same,IC50,"[2]; Homo sapiens, CCRF-CEM, 96 h",> 100 µM
same,"Mitochondrial DNA content, percentage of untreated CEM control cells",[2]; at 100 μM,94 ± 4%
same,IC50,[2],100 µM
same,"Cell count, percentage of untreated CEM control cells","CEM cells; CEM cells, at 100 μM",77 ± 16%
same,IC50,CEM cells,> 100 µM
same,EC50,HIV-1 strain IIIB [7],0.25 ± 0.14 µM
same,EC50,"HIV-1 strain IIIB [3]; Human immunodeficiency virus 1, MT2, MT-2/HIV IIIB system, FIG. 10, read-out: EC50 for single agents (isobologram study)",0.5 µM
same,Anti-HIV activity compared with D4T,"HIV-1 strain IIIB [3]; MT-2/IIIB anti HIV-1 system, FIG. 8",more effective against HIV
same,Effect of addition of dCyd on the antiviral activity,"HIV-1 strain IIIB [3]; dCyd 10 μM in the presence of THU 5 μM, FIG. 9",no significant effect
same,Effect of addition of dThd on the antiviral activity,"HIV-1 strain IIIB [3]; dThd 10 μM and 1 μM added to standard antiviral assay, FIG. 9",decreased the antiviral effect
same,Antiviral interaction in combination (isobologram),HIV-1 strain IIIB [3]; in combination with 3TC,synergistic
same,Antiviral interaction in combination (isobologram),HIV-1 strain IIIB [3]; in combination with AZT (data not shown),only additive
same,Antiviral interaction in combination (isobologram),HIV-1 strain IIIB [3]; in combination with LFd4C,synergistic
same,Antiviral interaction in combination (isobologram),HIV-1 strain IIIB [3]; in combination with ddI (data not shown),only additive
same,Stability at pH 1,Acid stability study,No detectable breakdown
same,Toxic interaction on cell growth in combination with 3TC and LFd4C,"H-9 cells; H9 cells, 48 h assay",no significant increase in toxic interactions
same,Percent of Untreated Controls,H-9 cells; 25 μM 4′-ethynyl D4T plus 5 μM 3TC,98 ± 2%
same,Percent of Untreated Controls,H-9 cells; 25 μM 4′-ethynyl D4T plus 5 μM LFd4C,62 ± 3%
same,Percent of Untreated Controls,H-9 cells; 25 μM 4′-ethynyl D4T plus 10 μM LFd4C,58 ± 4%
same,Percent of Untreated Controls,H-9 cells; 25 μM 4′-ethynyl D4T plus 20 μM 3TC,88 ± 3%
same,Percent of Untreated Controls,H-9 cells; 25 μM 4′-ethynyl D4T plus 100 μM 3TC,85 ± 3%
same,Percent of Untreated Controls,"H-9 cells; 25 μM 4′-ethynyl D4T, no additive",97 ± 7%
same,Percent of Untreated Controls,H-9 cells; 50 μM 4′-ethynyl D4T plus 5 μM 3TC,99 ± 10%
same,Percent of Untreated Controls,H-9 cells; 50 μM 4′-ethynyl D4T plus 5 μM LFd4C,72 ± 5%
same,Percent of Untreated Controls,H-9 cells; 50 μM 4′-ethynyl D4T plus 10 μM LFd4C,64 ± 5%
same,Percent of Untreated Controls,H-9 cells; 50 μM 4′-ethynyl D4T plus 20 μM 3TC,87 ± 6%
same,Percent of Untreated Controls,H-9 cells; 50 μM 4′-ethynyl D4T plus 100 μM 3TC,84 ± 6%
same,Percent of Untreated Controls,"H-9 cells; 50 μM 4′-ethynyl D4T, no additive",102 ± 6%
same,Break down by thymidine phosphorylase,"[5]; 100 μM nucleoside, 37° C., FIG. 11",below the detection level
same,Relative Vmax,thymidine kinase (TK-1) [6],3.8 ± 0.8
same,"Rate of phosphorylation by TK-1, in words",thymidine kinase (TK-1) [6]; purified human TK-1,superior to D4T; also recorded: twice as fast as D4T
same,IC50,MT-2 cells,> 256 µM
same,Toxicity compared with D4T,MT-2 cells; MT-2/IIIB system,less toxic than the parental compound D4T
"thymidine kinase (TK-1) (Homo sapiens) (protein, phosphorylated by thymidine kinase (TK-1) from CEM cells; endogenous in cells) MSCINLPTVLPGSPSKTRGQIQVILGPMFSGKSTELMRRVRRFQIAQYKCLVIKYAKDTRYSSSFCTHDRNTMEALPACLLRDVAQEALGVAVIGIDEGQFFPDIVEFCEAMANAGKTVIVAALDGTFQRKPFGAILNLVPLAESVVKLTAVCMECFREAAYTKRLGTEKEVEVIGGADKYHSVCRLCYFKKASGQPAGPDNKENCPVPGKPGEAVAARKLFAPQQILQCSPAN",Km,[8],52 µM
same,Km,[9],133 µM
